Source: ChEMBL document CHEMBL5113530, “Butyrylation Meets Adipogenesis-Probed by a p300-Catalyzed Acylation-Specific Small Molecule Inhibitor: Implication in Anti-obesity Therapy” (J Med Chem, 2022)
Active and inactive are the calls of the source. The rule behind the calls is not given here.

Assays:
[1] = Toxicity in male Sprague-Dawley rat assessed as average food intake at 500 mg/kg, po administered as single dose measured on day 7 (Rvb =20.24 g/day); format: organism-based; details: in vivo, 168 h, time 7 day
[2] = Toxicity in female Sprague-Dawley rat assessed as average food intake at 500 mg/kg, po administered as single dose measured on day 7 (Rvb =15.65 g/day); format: organism-based; details: in vivo, 168 h, time 7 day
[3] = Mutagenicity in Salmonella typhimurium TA98 assessed as number of revertants measured per plate at 10 to 1000 incubated for 48 hrs in absence of rat liver S9 fraction by plate incorporation assay; format: toxicity; details: salmonella enterica subsp. enterica serovar typhimurium, s9, 48 h, dose 10-1000 µg
[4] = Toxicity in male Sprague-Dawley rat assessed as average water intake measured per day at 250 mg/kg, po administered as single dose measured on day 7 (Rvb =30 ml/day); format: organism-based; details: in vivo, 168 h, time 7 day
[5] = Toxicity in female Sprague-Dawley rat assessed as average food intake at 500 mg/kg, po administered as single dose measured on day 1 (Rvb =17.84 g/day); format: organism-based; details: in vivo, 24 h, time 1 day
[6] = Toxicity in male Sprague-Dawley rat assessed as average food intake at 1000 mg/kg, po administered as single dose measured on day 7 (Rvb =20.24 g/day); format: organism-based; details: in vivo, 168 h, time 7 day
[7] = Toxicity in female Sprague-Dawley rat assessed as average food intake at 1000 mg/kg, po administered as single dose measured on day 14 (Rvb =15.95 g/day); format: organism-based; details: in vivo, 336 h, time 14 day
[8] = Toxicity in female Sprague-Dawley rat assessed as average food intake at 500 mg/kg, po administered as single dose measured on day 14 (Rvb =15.95 g/day); format: organism-based; details: in vivo, 336 h, time 14 day
[9] = Toxicity in female Sprague-Dawley rat assessed as average food intake at 1000 mg/kg, po administered as single dose measured on day 1 (Rvb =17.84 g/day); format: organism-based; details: in vivo, 24 h, time 1 day
[10] = Toxicity in male Sprague-Dawley rat assessed as average food intake at 1000 mg/kg, po administered as single dose measured on day 1 (Rvb =20.38 g/day); format: organism-based; details: in vivo, 24 h, time 1 day
[11] = Toxicity in female Sprague-Dawley rat assessed as average water intake measured per day at 500 mg/kg, po administered as single dose measured on day 7 (Rvb =21 ml/day); format: organism-based; details: in vivo, 168 h, time 7 day
[12] = system: Mus musculus; assay: Anti-obesity activity in db/db mouse assessed as reduction in adipocyte hypertrophy at 50 mg/kg, po qd administered for 30 days by hematoxylin and eosin staining based assay; format: functional, organism-based; details: time 30.0 day
[13] = system: Mus musculus; assay: Anti-obesity activity in C57BL6/J mouse model of high fat diet-induced obesity assessed as daily food consumption measured per day per mouse at 50 mg/kg (reference value: 1.95547 +/- 0.23142 g); format: functional
[14] = system: Mus musculus; assay: Anti-obesity activity in db/db mouse assessed as inhibition of Pprag-gene expression at 50 mg/kg, po qd administered for 30 days by qRT-PCR analysis; format: functional, organism-based; details: time 30.0 day
[15] = Toxicity in female Sprague-Dawley rat assessed as effect on body weight at 250 mg/kg, po administered as single dose measured on day 1 (Rvb =152.21 +/- 6.58 g); format: organism-based; details: in vivo, 24 h, time 1 day
[16] = Toxicity in male Sprague-Dawley rat assessed as average food intake at 1000 mg/kg, po administered as single dose measured on day 14 (Rvb =21.24 g/day); format: organism-based; details: in vivo, 336 h, time 14 day
[17] = Mutagenicity in Salmonella typhimurium TA98 assessed as number of revertants measured per plate at 10 to 1000 incubated for 48 hrs in presence of rat liver S9 fraction by plate incorporation assay; format: toxicity; details: salmonella enterica subsp. enterica serovar typhimurium, s9, 48 h, dose 10-1000 µg
[18] = system: Histone acetyltransferase p300 (Homo sapiens), Q09472 [C1438A]; assay: Inhibition of […] His-tagged EP300 C1438A mutant catalytic domain catalyzed acetylation (unknown origin) expressed in Escherichia coli BL21 (DE3) using Histone H3 as substrate at 25 uM preincubated with compound for 10 mins followed by acetyl-CoA addition and measured after 10 mins by Western blot analysis; details: time 20.0 min
[19] = Toxicity in male Sprague-Dawley rat assessed as effect on body weight at 500 mg/kg, po administered as single dose measured on day 1 (reference value: 174.75 +/- 7.61 g); format: organism-based; details: in vivo, 24 h, time 1 day
[20] = system: 3T3-L1; assay: Anti-adipogenic activity against mouse 3T3-L1 cells assessed as downregulation of SLC2A4 mRNA expression at 25 uM measured after 7 days by qRT-PCR analysis; format: functional, cell-based; details: time 7.0 day
[21] = Toxicity in male Sprague-Dawley rat assessed as average water intake measured per day at 500 mg/kg, po administered as single dose measured on day 14 (Rvb =34 ml/day); format: organism-based; details: in vivo, 336 h, time 14 day
[22] = Mutagenicity in Salmonella typhimurium TA97a assessed as number of revertants measured per plate at 10 to 1000 incubated for 48 hrs in presence of rat liver S9 fraction by plate incorporation assay; format: toxicity; details: salmonella enterica subsp. enterica serovar typhimurium, s9, 48 h, dose 10-1000 µg
[23] = Toxicity in female Sprague-Dawley rat assessed as effect on body weight at 500 mg/kg, po administered as single dose measured on day 14 (Rvb =171.5 +/- 6.65 g); format: organism-based; details: in vivo, 336 h, time 14 day
[24] = Toxicity in female Sprague-Dawley rat assessed as average water intake measured per day at 500 mg/kg, po administered as single dose measured on day 1 (Rvb =25 ml/day); format: organism-based; details: in vivo, 24 h, time 1 day
[25] = Toxicity in male Sprague-Dawley rat assessed as effect on body weight at 500 mg/kg, po administered as single dose measured on day 7 (reference value: 217.38 +/- 11.38 g); format: organism-based; details: in vivo, 168 h, time 7 day
[26] = system: 3T3-L1; assay: Anti-adipogenic activity against mouse 3T3-L1 cells assessed as downregulation of CEBPD mRNA expression at 25 uM measured after 7 days by qRT-PCR analysis; format: functional, cell-based; details: time 7.0 day
[27] = Toxicity in male Sprague-Dawley rat assessed as average food intake at 500 mg/kg, po administered as single dose measured on day 14 (Rvb =21.24 g/day); format: organism-based; details: in vivo, 336 h, time 14 day
[28] = Toxicity in male Sprague-Dawley rat assessed as effect on body weight at 250 mg/kg, po administered as single dose measured on day 7 (reference value: 217.38 +/- 11.38 g); format: organism-based; details: in vivo, 168 h, time 7 day
[29] = Toxicity in male Sprague-Dawley rat assessed as average water intake measured per day at 1000 mg/kg, po administered as single dose measured on day 7 (Rvb =30 ml/day); format: organism-based; details: in vivo, 168 h, time 7 day
[30] = system: Mus musculus; assay: Anti-obesity activity in C57BL6/J mouse model of high fat diet-induced obesity assessed as reduction in H4K5 butyrylation level in epididymal fat pad at 50 mg/kg by Immunoblotting analysis; format: functional, organism-based
[31] = system: Mus musculus; assay: Anti-obesity activity in db/db mouse assessed as reduction in H4K5 butyrylation level in epididymal fat pad at 50 mg/kg, po qd administered for 30 days by Immunoblotting analysis; format: functional, organism-based; details: time 30.0 day
[32] = biological target: Histone acetyltransferase p300 (Homo sapiens) (UniProt Q09472); assay: Inhibition of wild-type His-tagged EP300 catalytic domain catalyzed butyrylation (unknown origin) expressed in Escherichia coli BL21 (DE3) using Histone H3 as substrate at 25 uM preincubated with compound for 10 mins followed by butyryl-CoA addition and measured after 10 mins by Western blot analysis; details: time 20.0 min
Histone acetyltransferase p300 (Homo sapiens), sequence (Q09472 whole entry, the tested form may be a part): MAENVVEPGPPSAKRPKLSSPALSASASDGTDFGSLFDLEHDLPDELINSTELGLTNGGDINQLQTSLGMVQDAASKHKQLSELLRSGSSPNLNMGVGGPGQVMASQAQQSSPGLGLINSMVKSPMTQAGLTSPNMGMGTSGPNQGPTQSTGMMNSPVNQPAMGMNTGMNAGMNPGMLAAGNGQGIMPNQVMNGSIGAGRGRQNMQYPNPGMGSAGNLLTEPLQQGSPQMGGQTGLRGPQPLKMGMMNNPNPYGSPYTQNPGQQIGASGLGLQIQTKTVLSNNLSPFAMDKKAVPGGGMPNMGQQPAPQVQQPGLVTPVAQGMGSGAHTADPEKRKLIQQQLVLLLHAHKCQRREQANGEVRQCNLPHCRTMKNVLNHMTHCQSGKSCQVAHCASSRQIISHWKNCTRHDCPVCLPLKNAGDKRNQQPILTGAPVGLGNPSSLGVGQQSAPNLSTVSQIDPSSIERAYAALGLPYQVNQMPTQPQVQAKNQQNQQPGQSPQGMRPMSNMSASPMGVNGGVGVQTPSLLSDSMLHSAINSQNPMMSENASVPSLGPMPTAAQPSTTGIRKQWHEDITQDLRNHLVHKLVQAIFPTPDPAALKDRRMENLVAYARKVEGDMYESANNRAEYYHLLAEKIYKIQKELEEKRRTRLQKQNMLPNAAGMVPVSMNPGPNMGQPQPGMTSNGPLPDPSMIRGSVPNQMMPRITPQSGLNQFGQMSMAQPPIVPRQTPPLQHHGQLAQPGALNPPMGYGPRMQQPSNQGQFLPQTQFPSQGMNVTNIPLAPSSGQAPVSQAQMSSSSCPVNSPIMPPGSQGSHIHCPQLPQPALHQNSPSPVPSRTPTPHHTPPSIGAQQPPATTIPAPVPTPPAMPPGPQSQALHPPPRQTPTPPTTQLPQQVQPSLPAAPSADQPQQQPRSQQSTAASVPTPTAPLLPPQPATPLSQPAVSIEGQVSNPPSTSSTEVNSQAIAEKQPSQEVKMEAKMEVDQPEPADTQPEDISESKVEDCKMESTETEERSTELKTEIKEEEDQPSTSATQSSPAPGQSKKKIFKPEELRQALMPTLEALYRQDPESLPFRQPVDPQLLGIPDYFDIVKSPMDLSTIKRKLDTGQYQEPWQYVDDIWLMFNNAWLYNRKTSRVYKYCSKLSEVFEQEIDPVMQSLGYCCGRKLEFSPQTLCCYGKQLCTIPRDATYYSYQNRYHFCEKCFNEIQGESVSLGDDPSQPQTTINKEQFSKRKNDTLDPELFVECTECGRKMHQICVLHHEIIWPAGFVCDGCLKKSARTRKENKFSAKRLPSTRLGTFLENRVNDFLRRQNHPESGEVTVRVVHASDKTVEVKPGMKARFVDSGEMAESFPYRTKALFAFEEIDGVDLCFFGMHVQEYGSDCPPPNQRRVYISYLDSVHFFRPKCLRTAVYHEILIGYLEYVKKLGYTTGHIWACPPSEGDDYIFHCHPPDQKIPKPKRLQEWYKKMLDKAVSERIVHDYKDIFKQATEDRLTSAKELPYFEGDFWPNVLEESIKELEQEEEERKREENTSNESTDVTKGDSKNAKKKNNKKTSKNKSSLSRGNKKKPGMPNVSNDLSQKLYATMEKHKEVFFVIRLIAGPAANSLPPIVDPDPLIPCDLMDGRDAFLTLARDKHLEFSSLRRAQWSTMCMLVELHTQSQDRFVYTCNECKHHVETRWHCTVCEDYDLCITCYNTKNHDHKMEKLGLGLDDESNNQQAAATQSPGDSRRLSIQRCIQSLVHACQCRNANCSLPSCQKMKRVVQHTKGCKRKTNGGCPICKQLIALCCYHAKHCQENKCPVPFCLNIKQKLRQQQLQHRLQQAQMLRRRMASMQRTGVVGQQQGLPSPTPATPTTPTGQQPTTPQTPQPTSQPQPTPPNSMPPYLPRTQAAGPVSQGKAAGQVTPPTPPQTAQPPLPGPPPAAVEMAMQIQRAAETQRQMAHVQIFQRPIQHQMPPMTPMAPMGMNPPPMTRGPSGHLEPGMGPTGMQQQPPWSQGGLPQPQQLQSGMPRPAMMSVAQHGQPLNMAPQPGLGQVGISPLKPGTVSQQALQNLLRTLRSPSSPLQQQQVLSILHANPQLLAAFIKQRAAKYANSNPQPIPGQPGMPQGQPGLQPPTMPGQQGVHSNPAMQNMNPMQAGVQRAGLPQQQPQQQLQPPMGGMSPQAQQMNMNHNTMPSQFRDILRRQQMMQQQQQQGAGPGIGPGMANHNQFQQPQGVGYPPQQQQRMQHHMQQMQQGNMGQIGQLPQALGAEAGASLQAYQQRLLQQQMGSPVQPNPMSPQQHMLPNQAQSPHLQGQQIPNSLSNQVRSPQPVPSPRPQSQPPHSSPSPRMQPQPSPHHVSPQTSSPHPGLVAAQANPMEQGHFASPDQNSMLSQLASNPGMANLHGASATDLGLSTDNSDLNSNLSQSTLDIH

Histone acetyltransferase p300 (Homo sapiens), Q09472 [C1438A], sequence (Q09472 whole entry C1438A, the tested form may be a part): as the sequence (Q09472 whole entry, the tested form may be a part) above, with C1438A counted along it

Which Activity [1] does the source give for COc1ccc(C(=O)C2=C3OC(C)(C)[C@@H](CC=C(C)C)C[C@@]34C[C@@H](CC=C(C)C)C(C)(C)[C@](CC=C(C)C)(C2=O)C4=O)cc1OC here?
Its Activity is 21.14 g/day.

And the Activity [2]?
The Activity was 18.13 g/day.

And the Activity [3]?
The Activity was “Non-Toxic”.

And the Activity [4]?
Its Activity is 27 mL.

What about the Activity [5] of the same compound?
The Activity was 18.22 g/day.

What about the Activity [6] of the same compound?
The Activity was 20.74 g/day.

And the Activity [7]?
Its Activity is 16.97 g/day.

And the Activity [8]?
Its Activity is 17.09 g/day.

What about the Activity [9] of the same compound?
Its Activity is 18.17 g/day.

And the Activity [10]?
The Activity was 20.76 g/day.

And the Activity [11]?
Its Activity is 23 mL.

And the Activity [12]?
Its Activity is “Active”.

What about the Activity [13] of the same compound?
Its Activity is 2.041 g.

What about the Activity [14] of the same compound?
Its Activity is “Active”.

What about the Activity [15] of the same compound?
The Activity was 151.99 g.

And the Activity [16]?
Its Activity is 19.95 g/day.

What about the Activity [17] of the same compound?
The Activity was “Non-Toxic”.

And the inhibition [18]?
The inhibition was “Active”.

What about the Activity [19] of the same compound?
The Activity was 176.3 g.

And the Activity [20]?
The Activity was “Active”.

What about the Activity [21] of the same compound?
Its Activity is 40 mL.

And the Activity [22]?
Its Activity is “Non-Toxic”.

What about the Activity [23] of the same compound?
The Activity was 175.8 g.

What about the Activity [24] of the same compound?
Its Activity is 25 mL.

What about the Activity [25] of the same compound?
The Activity was 229.75 g.

What about the Activity [26] of the same compound?
Its Activity is “Active”.

What about the Activity [27] of the same compound?
The Activity was 23.29 g/day.

What about the Activity [28] of the same compound?
The Activity was 216.62 g.

What about the Activity [29] of the same compound?
The Activity was 31 mL.

And the Activity [30]?
Its Activity is “Active”.

What about the Activity [31] of the same compound?
The Activity was “Active”.

What about the inhibition [32] of the same compound?
Its inhibition is “Active”.
